“And” between values parts separate entries of the source, which are not always exact repeats. Equal values may be shown once.
Key:
[1] = system: Functional Endoscopic Sinus Surgery (FESS) surgical wound; type: in vivo, human
Description: Study design—This study was a retrospective chart review of 94 consecutive human patients who underwent FESS and who were operated on by a single surgeon in a single center in Perth, Western Australia. FIGS. 6A and 6B show a flowchart of patients based on extent of surgery and outcomes. Only patients treated with PuraSinus alone (no other hemostatic agent was used) were included in the analysis. Ethics approval was obtained from St John of Good Health Care Human Research Ethics Committee.
Patient population—The study included adult human patients who underwent FESS procedures and also included patients who underwent FESS in combination with nasal surgery (septoplasty and/or turbinoplasty). Both primary and revision cases were included. Patients were discharged the day after surgery with a recommendation to perform saline nasal irrigations no less than four times a day. Patient characteristics, indication for surgery, extent of surgical intervention, and bleeding and adhesion information was recorded.
Surgical categories—Procedures were performed according to the minimally invasive sinus technique (MIST), including combination of maxillary antrostomy, ethmoidectomies, sphenoidotomies and frontal sinus (Draf Ila, or Draf 111), turbinate reduction and/or septoplasty. FESS procedures were categorized into two groups: complete FESS (including all sinuses—maxillary antrostomy, ethmoidectomy, sphenoidotomy, and frontal sinusotomy) or limited FESS (anything less than complete FESS, usually involves antrostomy and ethmoidectomy). The surgical extent was dictated by the patient's condition and the surgeon's clinical judgement.
Material used—PuraSinus (licensed as PuraStat in Australia, 3D-Matrix)/RADA16-I (SEQ ID NO:1) 2.5% w/v in water is a transparent SAP solution supplied sterile in a pre-filled syringe (available in a 3 mL and 5 mL form) ready for use with a thin application nozzle suited for endoscopic catheter administration. The syringe is stored at between 2° C. and 8° C. At completion of the FESS procedure, PuraSinus was applied to the surgical wound in a thin and even layer as close as possible to the bleeding point. A similar application technique has been outlined previously (M. Lee et al., Int. J. Surg. Case Rep. 41: 461-4 (2017)). […] Tissues treated with the hydrogel were visible via endoscope given the gel's transparency.
Outcomes and objectives—The objectives of this study were to evaluate the effectiveness of PuraSinus in rapidly achieving intraoperative hemostasis and to assess the incidence of delayed bleeding ([…]) and synechiae formation via endoscopic observation of the nasal mucosa at follow-up visits. Primary bleeding was defined as bleeding occurring within 24 hours of surgery.
Data analysis—Statistical analysis was performed using descriptive statistics for continuous variables and patient demographics were reported. The rate of successful hemostasis and incidence of synechiae formation were calculated as a proportion of total patients undergoing FESS.
Adhesions—Nasal endoscopic examination of each patient was performed at a first follow-up visit occurring between 7 and 30 days after surgery (median 15 days, mean±SD 14.0±3.7 days). A subsequent follow-up examination of each patient was performed on average on day 42, ranging from 28 to 79 days post-surgery. […] Debridement of the observed synechiae was performed in these cases in the outpatient setting by either suction (n=13) or scissors (n=10). […] Thus, the desired outcome of intraoperative treatment with PuraSinus (SEQ ID NO:1) in achieving recovery without synechiae formation in these patients was nearly 90% (n=84/94). None of the patients who had required additional intervention for hemostasis subsequently presented with adhesion formation.

[2] = system: turbinate reduction surgery (TRS/Turbinoplasty); conditions: first follow-up at four weeks; result in words; cited from earlier work
[3] = pH of the supplied solution; type: physicochemical; conditions: 2.5% weight/volume solution in water
Description: Details of the Sheep Study—Endoscopic nasal surgery targeting the turbinates and sinuses has become a cornerstone in managing chronic rhinosinusitis. A sheep model was chosen to test treatment of an endoscopic surgical wound deep in the sinuses with PuraSinus (RADA16-I; (SEQ ID NO:1) 2.5% in water) compared to controls as a model for […] in humans both due to the size of the animals and the suitability of the sheep model for comparison with this kind of surgery in humans as described below. PuraSinus (ARTG: 267486; (SEQ ID NO:1)) was supplied by 3-D Matrix Europe SAS as a 2.5% weight/volume solution of synthetic SAPs in water having a pH of about 2.3. Upon contact with physiologic tissue and/or liquid like blood, the pH and/or ionic strength of PuraSinus (SEQ ID NO:1) increases, triggering the self-assembly of the peptides into nanofibers, forming a beta-sheet network similar to an extracellular matrix. At a macroscopic level, the viscous solution forms a hydrogel that seals the opened vessels resulting in hemostasis. PuraSinus (SEQ ID NO:1) is biocompatible and free from infectious agents and is resorbed over time although some residue may remain for ≥30 days. It is supplied sterile in a syringe and delivered through a nozzle supplied by the manufacturer. It is stored at 2-8° C. […]

[4] = in solution before DMEM; RADA16 assumed 2.5% wt/vol, IEIK13 concentration unknown; cited from earlier work

For `CC(=O)N[C@@H](CCCNC(=N)N)C(=O)N[C@@H](C)C(=O)N[C@@H](CC(=O)O)C(=O)N[C@@H](C)C(=O)N[C@@H](CCCNC(=N)N)C(=O)N[C@@H](C)C(=O)N[C@@H](CC(=O)O)C(=O)N[C@@H](C)C(=O)N[C@@H](CCCNC(=N)N)C(=O)N[C@@H](C)C(=O)N[C@@H](CC(=O)O)C(=O)N[C@@H](C)C(=O)N[C@@H](CCCNC(=N)N)C(=O)N[C@@H](C)C(=O)N[C@@H](CC(=O)O)C(=O)N[C@@H](C)C(N)=O` [PuraSinus, Ac-RADARADARADARADA-NH2], the “Adhesion formation at first follow up visit, patients” value ([1]; 7-30 days after surgery) was 18, the “Persisting adhesions, patients” value ([1]; final outcome, of 23) was 5 and the “Resolved adhesions, patients” value ([1]; final outcome, of 23) was 18. For the same compound, the “Adhesion formation, total patients” value ([1]; full follow-up period, n of 94) was 23, the “Adhesion (synechiae) formation, rate” value ([1]; full follow-up period, of 94 patients) was 24.5% and the “Pain at the surgical site” value ([1]; human, in vivo) was “all patients expressed comfort with no pain”. For the same compound, the “Patients with no adhesions found” value ([1]; n of 94) was 71, the “Adhesion location: Inferior turbinate/septum + medial turbinate/lateral wall, patients” value ([1]; of 23) was 4 and the “Adhesion location: Inferior turbinate/septum, patients” value ([1]; of 23) was 12. For the same compound, the “Adhesion location: Medial turbinate/lateral wall, patients” value ([1]; of 23) was 7, the “Debridement by scissors (sharp), patients” value ([1]; of 23) was 10 and the “Debridement by suction, patients” value ([1]; of 23) was 13. For the same compound, the “Patients with adhesion formation: Complete FESS” value ([1]; of 23) was 8, the “Patients with adhesion formation: Female” value ([1]; of 23) was 16 and the “Patients with adhesion formation: Limited FESS” value ([1]; of 23) was 15. For the same compound, the “Patients with adhesion formation: Male” value ([1]; of 23) was 7, the “Patients free of adhesions, rate” value ([1]; second follow-up examination, of 94 patients) was ~90% and 89.4% and the Patients without adhesions ([1]; second follow-up, no adhesions or adhesions easily removed by suction, of 94) was 84 and 84/94. The “Postoperative bleeding or adhesion formation” value [2] was “none of their patients experiencing bleeding or adhesion formation postoperatively”, the pH [3] was “about 2.3” and the “Median loss modulus G″” value [4] was 24 Pa. The “Median storage modulus G′” value [4] was 384 Pa.

From patent US20230365625A1, “METHODS FOR TREATING AND/OR PREVENTING UNDESIRABLE SEQULAE OF NASAL TURBINOPLASTY OR FUNCTIONAL ENDOSCOPIC SINUS SURGERY” (3-D Matrix, Ltd., priority 2022, published 2023)
